# Molecular target: T1, recombinant human GR (Homo sapiens, UniProt P04150)
# T1 construct: purchased Panvera/Invitrogen P2812 (kit P2893)
# T1 sequence (P04150 1-777): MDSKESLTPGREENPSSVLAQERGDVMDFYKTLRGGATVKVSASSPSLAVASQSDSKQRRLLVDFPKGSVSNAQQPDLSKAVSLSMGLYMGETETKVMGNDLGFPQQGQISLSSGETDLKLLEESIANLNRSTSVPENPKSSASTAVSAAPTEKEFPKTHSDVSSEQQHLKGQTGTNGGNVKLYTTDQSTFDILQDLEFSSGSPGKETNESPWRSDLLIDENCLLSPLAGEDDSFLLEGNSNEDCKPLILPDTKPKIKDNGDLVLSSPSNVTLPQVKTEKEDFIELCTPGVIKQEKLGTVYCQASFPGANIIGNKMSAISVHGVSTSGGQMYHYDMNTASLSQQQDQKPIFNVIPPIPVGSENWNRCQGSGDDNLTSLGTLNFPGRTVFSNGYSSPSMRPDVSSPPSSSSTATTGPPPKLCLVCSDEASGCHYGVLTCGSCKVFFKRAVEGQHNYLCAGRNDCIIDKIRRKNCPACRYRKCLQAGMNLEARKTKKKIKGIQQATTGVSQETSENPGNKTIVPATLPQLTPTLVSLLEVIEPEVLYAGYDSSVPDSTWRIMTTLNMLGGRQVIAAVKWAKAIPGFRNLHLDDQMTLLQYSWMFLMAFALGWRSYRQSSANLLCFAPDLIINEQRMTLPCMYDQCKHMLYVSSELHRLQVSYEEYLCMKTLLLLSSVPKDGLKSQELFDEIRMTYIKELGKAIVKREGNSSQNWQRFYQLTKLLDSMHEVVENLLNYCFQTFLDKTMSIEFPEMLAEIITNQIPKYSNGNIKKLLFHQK
# Experiment: Human Glucocorticoid Receptor (GR) Assay, fluorescence polarization competition with GS Red tracer
# Conditions: 2 hours at room temperature, 100% control 10 μM Dexamethasone, XLfit model 205, read-out: Inhibition of GR binding, IC50
# In short: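 Fluorescence polarization competition: recombinant human GR with GS Red tracer, stabilizing peptide and DTT in potassium phosphate/sodium molybdate/EDTA buffer. 2 h in dark at room temperature, read at ex 530/em 590 nm. Controls: DMSO (0%) and 10 μM dexamethasone (100%).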
row,Compound,IC50
1,"CCC(=O)O[C@]1(C(=O)SCF)CC[C@H]2[C@@H]3CCC4=Cc5c(cnn5-c5cccc(C(=O)NC6CCCC6)c5)C[C@]4(C)[C@H]3[C@@H](O)C[C@@]21C [Example 62, (1R,3aS,3bS,10aR, 10bS,11S,12aS)-7-[3-(cyclopentylcarbamoyl)phenyl]-1-{[(fluoromethyl)sulfanyl]carbonyl}-11-hydroxy-10a,12a-dimethyl-1,2,3,3a,3b,4,5,7,10, 10a,10b,11,12,12a-tetradecahydrocyclo-penta[5,6]naphtho [1,2-f]indazol-1-yl propanoate]",3.6 nM
2,"CCC(=O)O[C@]1(C(=O)SCF)CC[C@H]2[C@@H]3CCC4=Cc5c(cnn5-c5cccc(C(=O)NC)c5)C[C@]4(C)[C@@]3(F)[C@@H](O)C[C@@]21C [Example 33, (1R,3aS,3bS,10aS, 10bR,11S,12aS)-10b-fluoro-1-{[(fluoromethyl)sulfanyl]carbonyl}-11-hydroxy-10a,12a-dimethyl-7[3-(methylcarbamoyl)phenyl]-1,2,3,3a,3b,4,5,7,10, 10a,10b,11,12,12a-tetradecahydrocyclo-penta[5,6]naphtho [1,2-f]indazol-1-yl propanoate]",5.2 nM
3,"COCC(=O)O[C@]1(C(=O)SCF)CC[C@H]2[C@@H]3CCC4=Cc5c(cnn5-c5cccc(C(=O)N[C@@H]6CCOC6)c5)C[C@]4(C)[C@H]3[C@@H](O)C[C@@]21C [Example 40, (1R,3aS,3bS,10aR, 10bS,11S,12aS)-1-{[(fluoromethyl)sulfanyl]carbonyl}-11-hydroxy-10a,12a-dimethyl-7-{3-[(3R)-tetrahydrofuran-3-ylcarbamoyl]phenyl}-1,2,3,3a,3b,4,5,7,10, 10a,10b,11,12,12a-tetradecahydrocyclo-penta[5,6]naphtho [1,2-f]indazol-1-yl methoxyacetate]",3 nM
4,"COCC(=O)O[C@]1(C(=O)SCF)[C@H](C)C[C@H]2[C@@H]3CCC4=Cc5c(cnn5-c5cccc(C(=O)N[C@H](C)C(N)=O)c5)C[C@]4(C)[C@@]3(F)[C@@H](O)C[C@@]21C [Example 29, (1R,2R,3aS,3bS, 10aS,10bR,11S,12aS)-7-(3-{[(1R)-2-amino-1-methyl-2-oxoethyl]carbamoyl}phenyl)-10b-fluoro-1-{[(fluoromethyl)-sulfanyl]carbonyl}-11-hydroxy-2,10a,12a-trimethyl-1,2,3,3a,3b,4,5,7,10, 10a,10b,11,12,12a-tetradecahydrocyclo-penta[5,6]naphtho [1,2-f]indazol-1-yl methoxyacetate]",2.6 nM
5,"CCC(=O)O[C@]1(C(=O)SCF)CC[C@H]2[C@@H]3CCC4=Cc5c(cnn5-c5cccc(C(=O)NCC(N)=O)c5)C[C@]4(C)[C@H]3[C@@H](O)C[C@@]21C [Example 18, (1R,3aS,3bS,10aR,10bS,11S, 12aS)-7-{3-[(2-amino-2-oxoethyl)carbamoyl]phenyl}-1-{[(fluoromethyl)sulfanyl]carbonyl}-11-hydroxy-10a, 12a-dimethyl-1,2,3,3a,3b,4,5,7,10,10a,10b,11,12,12a-tetradecahydrocyclopenta[5,6] naphtho[1,2-f]indazol-1-yl propanoate]",1.4 nM
6,"COCC(=O)O[C@]1(C(=O)SCF)[C@H](C)C[C@H]2[C@@H]3CCC4=Cc5c(cnn5-c5cccc(C(=O)NCc6cccnc6)c5)C[C@]4(C)[C@@]3(F)[C@@H](O)C[C@@]21C [Example 46, (1R,2R,3aS,3bS, 10aS,10bR,11S,12aS)-10b-fluoro-1-{[(fluoromethyl)sulfanyl]carbonyl}-11-hydroxy-2,10a,12a-trimethyl-7-{3-[(pyridin-3-ylmethyl)carbamoyl]phenyl}-1,2,3,3a,3b,4,5,7,10, 10a,10b,11,12,12a-tetradecahydrocyclo-penta[5,6]naphtho [1,2-f]indazol-1-yl methoxyacetate]",3.3 nM
7,"COCC(=O)O[C@]1(C(=O)SCC#N)CC[C@H]2[C@@H]3CCC4=Cc5c(cnn5-c5cccc(C(=O)N6CCC[C@@H]6C(N)=O)c5)C[C@]4(C)[C@@]3(F)[C@@H](O)C[C@@]21C [Example 57, (1R,3aS,3bS,10aS, 10bR,11S,12aS)-7-(3-{[(2R)-2-carbamoyl-pyrrolidin-1-yl]carbonyl}phenyl)-1-{[(cyanomethyl)sulfanyl]carbonyl}-10b-fluoro-11-hydroxy-10a,12a-dimethyl-1,2,3,3a,3b,4,5,7,10, 10a,10b,11,12,12a-tetradecahydrocyclo-penta[5,6]naphtho [1,2-f]indazol-1-yl methoxyacetate]",10 nM
8,"COCC(=O)O[C@]1(C(=O)SCF)CC[C@H]2[C@@H]3C[C@H](C)C4=Cc5c(cnn5-c5cccc(C(=O)NCC(N)=O)c5)C[C@]4(C)[C@H]3[C@@H](O)C[C@@]21C [Example 38, (1R,3aS,3bS,5S, 10aR,10bS,11S,12aS)-7-{3-[(2-amino-2-oxoethyl)carbamoyl]phenyl}-1-{[(fluoromethyl)sulfanyl]carbonyl}-11-hydroxy-5,10a, 12a-trimethyl-1,2,3,3a,3b,4,5,7,10, 10a,10b,11,12,12a-tetradecahydrocyclo-penta[5,6]naphtho [1,2-f]indazol-1-yl methoxyacetate]",8.3 nM
9,"CCC(=O)O[C@]1(C(=O)SCF)CC[C@H]2[C@@H]3CCC4=Cc5c(cnn5-c5cccc(C(=O)N[C@@H](C)C(N)=O)c5)C[C@]4(C)[C@@]3(F)[C@@H](O)C[C@@]21C [Example 35, (1R,3aS,3bS,10aS, 10bR,11S,12aS)-7-(3-{[(1S)-2-amino-1-methyl-2-oxoethyl]carbamoyl}phenyl)-10b-fluoro-1-{[(fluoromethyl)sulfanyl]carbonyl}-11-hydroxy-10a,12a-dimethyl-1,2,3,3a,3b,4,5,7,10,10a, 10b,11,12,12a-tetradecahydrocyclo-penta[5,6]naphtho [1,2-f]indazol-1-yl propanoate]",6.5 nM
10,"CSCCNC(=O)c1cccc(-n2ncc3c2C=C2CC[C@@H]4[C@H]([C@@H](O)C[C@@]5(C)[C@H]4CC[C@]5(OC(=O)C4CC4)C(=O)SCF)[C@@]2(C)C3)c1 [Example 10, (1R,3aS,3bS,10aR,10bS,11S,12aS)-1-{[(Fluoromethyl)sulfanyl]carbonyl}-11-hydroxy-10a,12a-dimethyl-7-(3-{[2-(methylsulfanyl)ethyl]carbamoyl}phenyl)-1,2,3,3a,3b,4,5,7,10,10a,10b,11,12,12a-tetradecahydrocyclopenta[5,6]naphtho[1,2-f]indazol-1-yl cyclopropanecarboxylate]",1.5 nM
11,"COCC(=O)O[C@]1(C(=O)SCC#N)CC[C@H]2[C@@H]3CCC4=Cc5c(cnn5-c5cccc(C(=O)NCC(N)=O)c5)C[C@]4(C)[C@H]3[C@@H](O)C[C@@]21C [Example 51, (1R,3aS,3bS,10aR, 10bS,11S,12aS)-7-{3-[(2-amino-2-oxoethyl)carbamoyl]phenyl}-1-{[(cyanomethyl)sulfanyl]carbonyl}-11-hydroxy-10a,12a-dimethyl-1,2,3,3a,3b,4,5,7,10, 10a,10b,11,12,12a-tetradecahydrocyclo-penta[5,6]naphtho [1,2-f]indazol-1-yl methoxyacetate]",2.8 nM
12,"CCC(=O)O[C@]1(C(=O)SCF)CC[C@H]2[C@@H]3CCC4=Cc5c(cnn5-c5cccc(C(=O)NCCOC)c5)C[C@]4(C)[C@H]3[C@@H](O)C[C@@]21C [Example 2, (1R,3aS,3bS,10aR,10bS,11S,12aS)-1-{[(Fluoromethyl)sulfanyl]carbonyl}-11-hydroxy-7-{3-[(2-methoxyethyl)carbamoyl]phenyl}-10a,12a-dimethyl-1,2,3,3a,3b,4,5,7,10,10a,10b,11,12,12a-tetradecahydrocyclopenta[5,6]naphtho[1,2-f]indazol-1-yl propanoate]",0.81 nM
13,"COCC(=O)O[C@]1(C(=O)SCF)CC[C@H]2[C@@H]3CCC4=Cc5c(cnn5-c5cccc(C(=O)N6CCC[C@@H]6C(N)=O)c5)C[C@]4(C)[C@@]3(F)[C@@H](O)C[C@@]21C [Example 15, (1R,3aS,3bS,10aS,10bR,11S,12aS)-7-(3-{[(2R)-2-Carbamoylpyrrolidin-1-yl]carbonyl}phenyl)-10b-fluoro-1-{[(fluoromethyl)sulfanyl]carbonyl}-11-hydroxy-10a,12a-dimethyl-1,2,3,3a,3b,4,5,7,10,10a,10b,11,12,12a-tetradecahydrocyclopenta[5,6]naphtho[1,2-f]indazol-1-yl methoxyacetate]",4.3 nM
14,"COCCNC(=O)c1cccc(-n2ncc3c2C=C2CC[C@@H]4[C@H]([C@@H](O)C[C@@]5(C)[C@H]4CC[C@]5(OC(=O)C4CC4)C(=O)SCF)[C@@]2(C)C3)c1 [Example 5, (1R,3aS,3bS,10aR,10bS,11S,12aS)-1-{[(Fluoromethyl)sulfanyl]carbonyl}-11-hydroxy-7-{3-[(2-methoxyethyl)carbamoyl]phenyl}-10a,12a-dimethyl-1,2,3,3a,3b,4,5,7,10,10a,10b,11,12,12a-tetradecahydrocyclopenta[5,6]naphtho[1,2-f]indazol-1-yl cyclopropanecarboxylate]",0.98 nM

# Source: patent US20100256104A1, “NOVEL AMIDE COMPOUNDS” (ASTRAZENECA R&D, priority 2009, published 2010)
